Laboratory results taken from ChEMBL document CHEMBL1201862, “PubChem BioAssay data set” (2004).
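Dose response: 5 concentrations. Exposure: 48 h. Format: 96-well plates. Endpoint: linear interpolation; highest concentration if not reached. At the GI50, growth is halved.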 The source made the active and inactive calls. No stated cut-off is given here; in the data, active = GI50 up to about 1.1 µM and inactive = higher.

Assays:
Experiment in all cases: NCI anticancer screen, dose series, 48 h
786-0 = tested on: 786-0
HT-29 = tested on: HT-29
K562 = tested on: K562
A498 = tested on: A498
DU-145 = tested on: DU-145
SN12C = tested on: SN12C
SNB-75 = tested on: SNB-75
CAKI-1 = tested on: CAKI-1
SK-OV-3 = tested on: SK-OV-3
HCC 2998 = tested on: HCC 2998
BT-549 = tested on: BT-549
MDA-MB-231 = tested on: MDA-MB-231
Hs-578T = tested on: Hs-578T
HCT-116 = tested on: HCT-116
OVCAR-5 = tested on: OVCAR-5
U-251 = tested on: U-251
LOX IMVI = tested on: LOX IMVI
MOLT-4 = tested on: MOLT-4
SNB-19 = tested on: SNB-19
OVCAR-4 = tested on: OVCAR-4
NCI/ADR-RES = tested on: NCI/ADR-RES
PC-3 = tested on: PC-3
MDA-MB-435 = tested on: MDA-MB-435
RPMI-8226 = tested on: RPMI-8226
ACHN = tested on: ACHN
HL-60 = tested on: HL-60
OVCAR-8 = tested on: OVCAR-8
SK-MEL-5 = tested on: SK-MEL-5
Malme-3M = tested on: Malme-3M
UACC-257 = tested on: UACC-257
T47D = tested on: T47D
KM12 = tested on: KM12
SR = tested on: SR
IGROV-1 = tested on: IGROV-1
NCI-H226 = tested on: NCI-H226
MDA-N = tested on: MDA-N
SF-268 = tested on: SF-268
MCF7 = tested on: MCF7
HCT-15 = tested on: HCT-15
SK-MEL-2 = tested on: SK-MEL-2
NCI-H522 = tested on: NCI-H522
SK-MEL-28 = tested on: SK-MEL-28
CCRF-CEM = tested on: CCRF-CEM
SF-539 = tested on: SF-539
RXF 393 = tested on: RXF 393
HOP-92 = tested on: HOP-92
UACC-62 = tested on: UACC-62
COLO 205 = tested on: COLO 205
TK-10 = tested on: TK-10
UO-31 = tested on: UO-31
SW-620 = tested on: SW-620
SF-295 = tested on: SF-295
HOP-62 = tested on: HOP-62
A549 = tested on: A549
OVCAR-3 = tested on: OVCAR-3
NCI-H460 = tested on: NCI-H460
NCI-H23 = tested on: NCI-H23
EKVX = tested on: EKVX
M14 = tested on: M14

## COc1cccc2c1C(=O)c1c(O)c3c(c(O)c1C2=O)C[C@@](O)(C(C)=O)CC3OC1CC(OC2CC(N)C(O)C(C)O2)C(O)C(C)O1 (some centres not stated)
786-0
  GI50: 32.5 µM (inactive)
HT-29
  GI50: 39.5 µM (inactive)
K562
  GI50: 19.6 µM (inactive)
A498
  GI50: > 100 µM (inactive)
DU-145
  GI50: 49.1 µM (inactive)
SN12C
  GI50: 36.9 µM (inactive)
SNB-75
  GI50: 22.1 µM (inactive)
CAKI-1
  GI50: > 100 µM (inactive)
SK-OV-3
  GI50: 51.9 µM (inactive)
HCC 2998
  GI50: 54.6 µM (inactive)
BT-549
  GI50: 32.5 µM (inactive)
MDA-MB-231
  GI50: > 64.9 µM (inactive)
Hs-578T
  GI50: > 48.4 µM (inactive)
HCT-116
  GI50: 29.4 µM (inactive)
OVCAR-5
  GI50: > 61.2 µM (inactive)
U-251
  GI50: 23.9 µM (inactive)
LOX IMVI
  GI50: 18.4 µM (inactive)
MOLT-4
  GI50: 2.58 µM (inactive)
SNB-19
  GI50: 21.1 µM (inactive)
OVCAR-4
  GI50: > 100 µM (inactive)
NCI/ADR-RES
  GI50: > 100 µM (inactive)
PC-3
  GI50: 48.6 µM (inactive)
MDA-MB-435
  GI50: 56.2 µM (inactive)
RPMI-8226
  GI50: 18.2 µM (inactive)
ACHN
  GI50: 38.7 µM (inactive)
HL-60
  GI50: 10.6 µM (inactive)
OVCAR-8
  GI50: 57.9 µM (inactive)
SK-MEL-5
  GI50: 35.7 µM (inactive)
Malme-3M
  GI50: 38.1 µM (inactive)
UACC-257
  GI50: > 67.5 µM (inactive)
T47D
  GI50: 37.9 µM (inactive)
KM12
  GI50: 35.8 µM (inactive)
SR
  GI50: > 24.4 µM (inactive)
IGROV-1
  GI50: 31.4 µM (inactive)
NCI-H226
  GI50: 51.1 µM (inactive)
MDA-N
  GI50: 68.1 µM (inactive)
SF-268
  GI50: 31.3 µM (inactive)
MCF7
  GI50: 7.66 µM (inactive)
HCT-15
  GI50: > 85.1 µM
SK-MEL-2
  GI50: 67.6 µM (inactive)
NCI-H522
  GI50: 45.4 µM (inactive)
SK-MEL-28
  GI50: > 72.4 µM (inactive)
CCRF-CEM
  GI50: 10.5 µM (inactive)
SF-539
  GI50: 25.1 µM (inactive)
RXF 393
  GI50: 83 µM (inactive)
HOP-92
  GI50: 31.3 µM (inactive)
UACC-62
  GI50: 66.1 µM (inactive)
COLO 205
  GI50: 74.6 µM (inactive)
TK-10
  GI50: > 100 µM (inactive)
UO-31
  GI50: 45.5 µM (inactive)
SW-620
  GI50: 32.7 µM (inactive)
SF-295
  GI50: 49 µM (inactive)
HOP-62
  GI50: 36.8 µM (inactive)
A549
  GI50: 52.5 µM (inactive)
OVCAR-3
  GI50: 31 µM (inactive)
NCI-H460
  GI50: 14.6 µM (inactive)
NCI-H23
  GI50: 34.9 µM (inactive)
EKVX
  GI50: > 100 µM (inactive)
M14
  GI50: 61.7 µM (inactive)

## NCCc1c[nH]c2ccc(OC(=O)C(=O)O)cc12
786-0
  GI50: > 100 µM (inactive)
HT-29
  GI50: > 100 µM (inactive)
K562
  GI50: > 100 µM (inactive)
A498
  GI50: > 100 µM (inactive)
DU-145
  GI50: > 100 µM (inactive)
SN12C
  GI50: > 100 µM (inactive)
SNB-75
  GI50: > 100 µM (inactive)
CAKI-1
  GI50: > 100 µM (inactive)
SK-OV-3
  GI50: > 100 µM (inactive)
HCC 2998
  GI50: > 100 µM (inactive)
BT-549
  GI50: > 100 µM (inactive)
MDA-MB-231
  GI50: > 100 µM (inactive)
Hs-578T
  GI50: > 100 µM (inactive)
HCT-116
  GI50: > 100 µM (inactive)
OVCAR-5
  GI50: > 100 µM (inactive)
U-251
  GI50: > 100 µM (inactive)
LOX IMVI
  GI50: > 100 µM (inactive)
MOLT-4
  GI50: > 100 µM (inactive)
SNB-19
  GI50: > 100 µM (inactive)
OVCAR-4
  GI50: > 100 µM (inactive)
NCI/ADR-RES
  GI50: > 100 µM (inactive)
PC-3
  GI50: > 100 µM (inactive)
MDA-MB-435
  GI50: > 100 µM (inactive)
RPMI-8226
  GI50: > 100 µM (inactive)
ACHN
  GI50: > 100 µM (inactive)
HL-60
  GI50: 0.302 µM (active)
OVCAR-8
  GI50: > 100 µM (inactive)
SK-MEL-5
  GI50: > 100 µM (inactive)
Malme-3M
  GI50: > 100 µM (inactive)
UACC-257
  GI50: > 100 µM (inactive)
T47D
  GI50: > 100 µM (inactive)
KM12
  GI50: > 100 µM (inactive)
SR
  GI50: > 100 µM (inactive)
IGROV-1
  GI50: > 100 µM (inactive)
NCI-H226
  GI50: > 100 µM (inactive)
MDA-N
  GI50: > 100 µM (inactive)
SF-268
  GI50: > 100 µM (inactive)
MCF7
  GI50: > 100 µM (inactive)
HCT-15
  GI50: > 100 µM
SK-MEL-2
  GI50: > 100 µM (inactive)
NCI-H522
  GI50: > 100 µM (inactive)
SK-MEL-28
  GI50: > 100 µM (inactive)
CCRF-CEM
  GI50: > 100 µM (inactive)
SF-539
  GI50: > 100 µM (inactive)
RXF 393
  GI50: > 100 µM (inactive)
HOP-92
  GI50: > 100 µM (inactive)
UACC-62
  GI50: > 100 µM (inactive)
COLO 205
  GI50: > 100 µM (inactive)
TK-10
  GI50: > 100 µM (inactive)
UO-31
  GI50: > 100 µM (inactive)
SW-620
  GI50: > 100 µM (inactive)
SF-295
  GI50: > 100 µM (inactive)
HOP-62
  GI50: > 100 µM (inactive)
A549
  GI50: > 100 µM (inactive)
OVCAR-3
  GI50: > 100 µM (inactive)
NCI-H460
  GI50: > 100 µM (inactive)
NCI-H23
  GI50: > 100 µM (inactive)
EKVX
  GI50: > 100 µM (inactive)
M14
  GI50: > 100 µM (inactive)

## CCCC(=O)Nc1cc(C(=O)N2C[C@@H]3C[C@]34C2=CC(=O)c2[nH]cc(C)c24)n(COC)c1
786-0
  GI50: 5.47 µM (inactive)
HT-29
  GI50: 8.55 µM (inactive)
K562
  GI50: 2.33 µM (inactive)
A498
  GI50: 10 µM (inactive)
DU-145
  GI50: 2.54 µM (inactive)
SN12C
  GI50: 10.6 µM (inactive)
SNB-75
  GI50: 7.36 µM (inactive)
CAKI-1
  GI50: 2.21 µM (inactive)
SK-OV-3
  GI50: 16.3 µM (inactive)
HCC 2998
  GI50: 3.28 µM (inactive)
BT-549
  GI50: 8.43 µM (inactive)
MDA-MB-231
  GI50: 8.53 µM (inactive)
Hs-578T
  GI50: 14.5 µM (inactive)
HCT-116
  GI50: 7.87 µM (inactive)
OVCAR-5
  GI50: 34.4 µM (inactive)
U-251
  GI50: 3.17 µM (inactive)
LOX IMVI
  GI50: 2.62 µM (inactive)
MOLT-4
  GI50: 0.807 µM (active)
SNB-19
  GI50: 12.4 µM (inactive)
OVCAR-4
  GI50: 8.02 µM (inactive)
NCI/ADR-RES
  GI50: 13.9 µM (inactive)
PC-3
  GI50: 7.33 µM (inactive)
MDA-MB-435
  GI50: 9.06 µM (inactive)
RPMI-8226
  GI50: 12.2 µM (inactive)
ACHN
  GI50: 5.93 µM (inactive)
HL-60
  GI50: 1.79 µM (inactive)
OVCAR-8
  GI50: 1.94 µM (inactive)
SK-MEL-5
  GI50: 1.54 µM (inactive)
Malme-3M
  GI50: 2.59 µM (inactive)
UACC-257
  GI50: 9.79 µM (inactive)
T47D
  GI50: 2.78 µM (inactive)
KM12
  GI50: 8.85 µM (inactive)
SR
  GI50: 0.566 µM (active)
IGROV-1
  GI50: 6.52 µM (inactive)
NCI-H226
  GI50: 11.2 µM (inactive)
MDA-N
  GI50: 8.65 µM (inactive)
SF-268
  GI50: 1.48 µM (inactive)
MCF7
  GI50: 1.36 µM (inactive)
HCT-15
  GI50: 15.9 µM
SK-MEL-2
  GI50: 2.38 µM (inactive)
NCI-H522
  GI50: 0.977 µM (active)
SK-MEL-28
  GI50: 7.48 µM (inactive)
CCRF-CEM
  GI50: 0.711 µM (active)
SF-539
  GI50: 7.06 µM (inactive)
RXF 393
  GI50: 1.84 µM (inactive)
HOP-92
  GI50: 1.4 µM (inactive)
UACC-62
  GI50: 5.86 µM (inactive)
COLO 205
  GI50: 5.93 µM (inactive)
TK-10
  GI50: 10.7 µM (inactive)
UO-31
  GI50: 8.97 µM (inactive)
SW-620
  GI50: 1.62 µM (inactive)
SF-295
  GI50: 19.9 µM (inactive)
HOP-62
  GI50: 14 µM (inactive)
A549
  GI50: 9.75 µM (inactive)
OVCAR-3
  GI50: 6.81 µM (inactive)
NCI-H460
  GI50: 6.64 µM (inactive)
NCI-H23
  GI50: 1.56 µM (inactive)
EKVX
  GI50: 12.6 µM (inactive)
M14
  GI50: 12.4 µM (inactive)
